Experimental data taken from US20260224486A1, “DIANHYDROHEXITOL BASED IONIZABLE LIPIDS FOR NUCLEIC ACID DELIVERY” (SANOFI PASTEUR INC., priority 2023, published 2026).

Experiments:
BALB/cJ mice = assay: Delivery of hEPO mRNA by intramuscular administration of LNPs; serum hEPO by ELISA; assay type: in vivo, Mouse; settings: for hEPO 24 Hr (ng/ml) Mean: mouse serum 24 hours post single IM injection of 0.1 μg hEPO mRNA LNP
Method in brief: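 Female BALB/cJ mice, 6-8 weeks, given a single IM injection of 0.1 μg hEPO mRNA LNPs into right gastrocnemius under light isoflurane. Serum taken at 6 and 24 h post dose and terminally by cardiac puncture; hEPO measured by ELISA ("shaker" protocol), samples diluted 1:40 to 1:100.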

[1] = Lipid nanoparticle size and polydispersity index by dynamic light scattering (Malvern Zetasizer); assay type: physicochemical; settings: hEPO mRNA LNP, Process A, Cationic Lipid:DMG-PEG2000:Cholesterol:DOPE 40:1.5:28.5:30 mol %, N/P 4
Source text: The lipid nanoparticles in the examples of the present invention were formulated using Process A of WO 2018/089801 (see, e.g., Example 1 and FIG. 1 of WO 2018/089801). Process A (“A”) relates to a conventional method of encapsulating mRNA by mixing mRNA with a mixture of lipids, without first pre-forming the lipids into lipid nanoparticles. In an exemplary process, an ethanolic solution of a mixture of lipids (cationic lipid, phosphatidylethanolamine, cholesterol, and polyethylene glycol-lipid) at a fixed lipid to mRNA ratio were combined with an aqueous buffered solution of target mRNA at an acidic pH under controlled conditions to yield a suspension of uniform LNPs. After ultrafiltration and diafiltration into a suitable diluent system, the resulting nanoparticle suspensions were diluted to final concentration, filtered, and stored frozen at −80° C. until use.
(§1) Lipid nanoparticle formulations of Table 1 were prepared by Process A. All of the lipid nanoparticle formulations comprised hEPO mRNA and the different lipids (Cationic Lipid: DMG-PEG2000: Cholesterol: DOPE) in mol % ratios of 40:1.5:28.5:30 (Cationic Lipid: DMG-PEG2000: Cholesterol: DOPE).
The Polydispersity Index (Pdl) of lipid nanoparticles can be determined by diluting the formulation in 10% trehalose at about 0.1 mg/ml mRNA concentration and then measuring the size on Malvern zetasizer. The lipid nanoparticle size can be obtained with Malvern Zetasizer Nano-ZS.
Dynamic light scattering (DLS) measurements were performed using a Malvern Instruments Zetasizer with a backscattering detector angle of 173° and a 4-mW, 633-nm He—Ne laser (Worcestershire, UK). The samples were analyzed by diluting in 10% Trehalose and measuring the size and Poly dispersity Index (PDI) in an optical grade polystyrene cuvette.

[2] = mRNA encapsulation efficiency of lipid nanoparticles (RiboGreen assay); assay type: physicochemical; settings: hEPO mRNA LNP, Process A, Cationic Lipid:DMG-PEG2000:Cholesterol:DOPE 40:1.5:28.5:30 mol %, N/P 4
Source text: In embodiments, the lipid nanoparticle encapsulates a nucleic acid, optionally an mRNA encoding a peptide or protein. In embodiments, the lipid nanoparticle encapsulates an mRNA encoding a peptide or protein, optionally for use in a vaccine. In embodiments, the peptide is an antigen. As used herein, the phrase “encapsulation percentage” refers to the fraction of therapeutic agent (e.g. mRNA) that is effectively encapsulated within a liposomal-based vehicle (e.g. a lipid nanoparticle) relative to the initial fraction of therapeutic agent present in the lipid phase. In embodiments, the lipid nanoparticles have an encapsulation percentage for mRNA of at least 50%. In embodiments, the lipid nanoparticles have an encapsulation percentage for mRNA of at least 55%. In embodiments, the lipid nanoparticles have an encapsulation percentage for mRNA of at least 60%. In embodiments, the lipid nanoparticles have an encapsulation percentage for mRNA of at least 65%. In embodiments, the lipid nanoparticles have an encapsulation percentage for mRNA of at least 70%. In embodiments, the lipid nanoparticles have an encapsulation percentage for mRNA of at least 75%. In embodiments, the lipid nanoparticles have an encapsulation percentage for mRNA of at least 80%. In embodiments, the lipid nanoparticles have an encapsulation percentage for mRNA of at least 85%. In embodiments, the lipid nanoparticles have an encapsulation percentage for mRNA of at least 90%. In embodiments, the lipid nanoparticles have an encapsulation percentage for mRNA of at least 95%. In embodiments, the encapsulation percentage is calculated by performing the Ribogreen assay (Invitrogen) with and without the presence of 0.1% Triton-X 100.
as §1
The RiboGreen Assay is a fluorescence-based method for the determination of mRNA concentration (Total and Free) and % encapsulation using Quant-iT™ RiboGreen® RNA reagent in mRNA containing lipid nanoparticles.
• To each of the standards (Blank, mRNA-1, mRNA-2. mRNA-3, mRNA-4, mRNA-5) and Samples (free mRNA and total mRNA), add 1.0 mL of 200-fold Ribogreen Reagent Solution and gently mix by inversion. This is a 2× Dilution. • Add 200 μL of each standard and sample in triplicate using the reverse pipetting technique in a 96-well Costar Black with Clear Background Plate. Ensure no bubbles are present in the plate before the fluorescence reading. • Read the fluorescence signal using the below instrument parameters: • Read Type: Fluorescence, Bottom Read • Excitation: 485 nm; Cut-off: 515 nm; Emission: 530 nm • Plate Type: 96-well Costar Black with Clear Background
The average fluorescence from each calibration standard is plotted against the concentration to generate a linear calibration curve using the MS Excel software. The coefficient of determination (R^2) of calibration curve must be R^2>0.99.
[formula] • Where, • Y=average fluorescence value • m: slope • x: concentration (pg/mL) • c: y-intercept • Using the linear equation, calculate the concentration of free and total mRNA concentration in the test sample by replacing the y value in the equation with the average fluorescence value of each respective sample • Once the concentration is determined, the actual concentration in the sample can be back-calculated by multiplying the concentration in the test sample with the dilution factor (DF) as follows:
[formula] [formula] • Concentration of encapsulated mRNA can be determined by subtracting the concentration of free mRNA from the total mRNA. • % Encapsulation can then be calculated by taking the ratio of encapsulated mRNA over total mRNA and multiplying the result with 100.

[3] = system: A/Tasmania/503/2020 (H3N2) virus; assay: Influenza titer: HAI assay on sera of mice immunized IM with Modified Tasmania H3 mRNA-lipid nanoparticles; settings: Balb/c mice, 0.4 ug per mouse Modified Tasmania H3 mRNA-LNP IM on day 0 and day 21
[4] = Table 3, isomannide-derived lipids, mouse serum 6 hours post single IM injection of 0.1 μg hEPO mRNA LNP
[5] = Table 3, isomannide-derived lipids
[6] = Table 2, isosorbide-derived lipids, mouse serum 6 hours post single IM injection of 0.1 μg hEPO mRNA LNP
[7] = Table 2, isosorbide-derived lipids
[8] = Table 4, further lipids, mouse serum 6 hours post IM injection of hEPO mRNA LNP as in example 3

Structure (SMILES)	hEPO 6 Hr (ng/mL) Mean (BALB/cJ mice; [4])	hEPO 24 Hr (ng/ml) Mean (BALB/cJ mice; [5])	Polydispersity Index (PDI) [1]	Size (nm) [1]	Encapsulation efficiency (EE) % [2]	HAI GMT [3]	hEPO 6 Hr (ng/ml) Mean (BALB/cJ mice; [6])	hEPO 24 Hr (ng/ml) Mean (BALB/cJ mice; [7])	hEPO 6 Hr (ng/ml) Mean (BALB/cJ mice; [8])
CCCCCCCCCCC(O)CN(CCCC(=O)O[C@H]1CO[C@H]2[C@@H]1OC[C@H]2OC(=O)CCCN(CC(O)CCCCCCCCCC)CC(O)CCCCCCCCCC)CC(O)CCCCCCCCCC (stereo in doubt) [Compound 3]	37.4 ng/mL	18.9 ng/mL	0.11	95 nm	86%	320	–	–	–
CCCCCC/C=C\COC(=O)CCCCCC(O)CN(CCCC(=O)O[C@@H]1CO[C@H]2[C@@H]1OC[C@@H]2SC(=O)CCCN(CC(O)CCCCCCCCCC)CC(O)CCCCCCCCCC)CC(O)CCCCCC(=O)OC/C=C\CCCCCC (stereo partly shown) [Compound 34]	–	–	0.1	84 nm	92%	–	33.8 ng/mL	–	–
CCCCCCCCCCCOC(=O)CCCC(O)CN(CCCC(=O)O[C@@H]1CO[C@H]2[C@@H]1OC[C@H]2OC(=O)CCCN(CC(O)CCCCCC(=O)OC(CCCCCCCC)CCCCCCCC)CC(O)CCCC(=O)OCCCCCCCCCCC)CC(O)CCCCCC(=O)OC(CCCCCCCC)CCCCCCCC (stereo partly shown) [Compound 11]	36 ng/mL	–	0.1	120 nm	94%	–	–	–	–
CCCCCCCCCCC(O)CN(CCCC(=O)O[C@@H]1CO[C@H]2[C@@H]1OC[C@H]2OC(=O)CCCN(CC(O)CCCCCC(=O)OC(CCCCCCCC)CCCCCCCC)CC1CCCC(=O)O1)CC(O)CCCCCCCCCC (stereo partly shown) [Compound 19]	10.7 ng/mL	5.35 ng/mL	0.13	94 nm	74%	–	–	–	–
CCCCCCCCCCC(O)CN(CCCOC(=O)O[C@H]1CO[C@H]2[C@@H]1OC[C@H]2OC(=O)OCCCN(CC(O)CCCCCCCCCC)CC(O)CCCCCCCCCC)CC(O)CCCCCCCCCC (stereo partly shown) [Compound 40]	–	–	0.11	84 nm	66%	–	11.9 ng/mL	7 ng/mL	–
CCCCCCCCC(O)CN(CCCCC(=O)O[C@H]1CO[C@H]2[C@@H]1OC[C@H]2OC(=O)CCCCN(CC(O)CCCCCCCC)CC(O)CCCCCCCC)CC(O)CCCCCCCC (stereo partly shown) [Compound 21]	–	–	0.139	78 nm	96%	–	31.6 ng/mL	–	–
CCCCCCCCCCC(O)CN(CCCC(=O)O[C@H]1CO[C@H]2[C@@H]1OC[C@H]2OC(=O)CCCN(CC(O)CCCCCCCCCC)CC(O)CCCCCCCCCC)CC(O)CCCCCCCCCC (stereo partly shown) [Compound 24]	–	–	0.11	88 nm	83%	190	30.2 ng/mL	19.4 ng/mL	–
CCCCCCCCCCC(O)CN(CCCSC(=O)N[C@H]1CO[C@H]2[C@@H]1OC[C@@H]2NC(=O)SCCCN(CC(O)CCCCCCCCCC)CC(O)CCCCCCCCCC)CC(O)CCCCCCCCCC (stereo partly shown) [Compound 54]	–	–	1.6	79 nm	87%	–	–	–	12.0 ng/mL
CCCCCCCCCCC(O)CN(CCCC(=O)N[C@H]1CO[C@H]2[C@@H]1OC[C@@H]2NC(=O)CCCN(CC(O)CCCCCCCCCC)CC(O)CCCCCCCCCC)CC(O)CCCCCCCCCC (stereo partly shown) [Compound 52]	–	–	0.14	74 nm	95%	–	–	–	72.7 ng/mL
CCCCCCCCCCC(O)CN(CCCCC(=O)O[C@@H]1CO[C@H]2[C@@H]1OC[C@@H]2OC(=O)CCCN(CC(O)CCCCCCCCCC)CC(O)CCCCCCCCCC)CC(O)CCCCCCCCCC (stereo partly shown) [Compound 25]	–	–	0.13	81 nm	96%	–	42.7 ng/mL	–	–
